Measurements from patent publication US6699834B1, “Method for treating cancer” (University of Maryland Biotechnology Institute, priority 1997, dated 2004).

Tests used:
KS Y-1 and KS-SLK cells = assay: Kaposi's Sarcoma clonogenic assay in cultured cells; format: cell-based, human; settings: inhibition of Kaposi's Sarcoma cell growth in vitro in cultured cells
Experimental: Briefly, the KS Y-1 cells were obtained from mononuclear cells isolated from pleural effusion of an AIDS patient with KS in the lungs. After the depletion of T lymphocytes, monocytes/macrophages and fibroblasts using monoclonal antibodies against CD2, CD3, CD4, CD8, CD10 and CD14 membrane antigens and baby rabbit complement, the cells were cultured in the absence of exogenous growth factors to select for transformed cells. […] Clonogenic assays were performed by seeding the KS Y-1 or KS-SLK cells in methylcellulose (0.8%, v/v), incubating the cells for 10 days in the presence or absence of the hCC, β-hCG or β-hCG peptide preparations and then counting the number of well-formed colonies of triplicate wells formed after seeding with 5×10^4 cells.
To assay for activity against Kaposi's sarcoma cell growth in vitro, the clonogenic assay described herein was used with the KS Y-1 and KS-SLK cultured Kaposi's Sarcoma cell lines,.

HIV-1 = settings: for HIV in vitro Inhibition: inhibition of HIV-1 replication in vitro (HIV-1 strains and HIV-1 primary isolates)
Description: To prepare HIV infected cells for the in vitro assay of hCG preparations and β-hCG peptides and derivatives, primary PBMCs, macrophages, and CD4^+ T cells isolated from peripheral blood and the H9 human T cell line, were acutely or chronically infected with 8 different HIV-1 strains: 4 cell line adapted viruses, namely the macrophage tropic Ba-L strain (Gartner et al., 1986, Science 233:215-219) and the CD4^+ T cell tropic MN, RF, and IIIB strains (10^5 TCID50/ml) (Popovic et al., 1984, Science […]; Gallo et al.; 1984, Science 224:500-503); 2 isolates, Ju1083 and G3, from Nigerian AIDS patients passed once in a CD4^+ T cell line (Sub-T1); and 2 primary (“clinical”) isolates from AIDS patients from Trinidad which were never passed in any cell line and were used at a titer of 7.5×10^4TCID50/ml. In all experiments; HIV1 (10^5 TCID50/ml) was added to the cells(10^6 cells/ml) for a 2 hour incubation after which the virus infected cells were washed with 10 ml phosphate buffered saline (PBS) three times to eliminate extra cellular virus. The test inhibitor, i.e. the hCG or β-hCG peptide preparation was then added and the cells were incubated with the test inhibiter for 9 to 10 days with serial sampling. Cultures were assayed for p24 antigen on days 3 to 10.
Peptides of the α- and β-subunits (0.05 to 50 nmoles/ml), native α chain preparation, and various crude preparations of the native hCG heterodimer (0.01 to 1,000 IU) and the native β-hCG subunit (100 to 1,000 μg) were tested for effects on HIV-1 replication in acutely infected cells-by measuring change in viral antigen levels in response to the above noted preparations (FIGS. 4A-D and Table 3).
The fractions were then tested for anti-HIV, anti-KS and pro-hematopoietic activities in vitro. To assay for inhibition of HIV-1 replication in vitro, the HIV-1 […] viral strain was used to infect PBMCs and PM-1 cells (derived from the HUT-78 T-cell lymphoma cell line) at 10^3 TCID50/ml as described in detail herein.

[1] = tested on: hematopoietic progenitor cells; assay: Hematopoietic progenitor clonogenic assays (CFU-GEMM, BFU-e, CFU-GM); format: cell-based, human; settings: relative increase of hematopoietic colony cell number; hCG preparations 200 IU/ml, subunits and peptides 100 μg/ml
Experimental: The effect of hCG preparations and peptides was assayed on hematopoietic progenitor cells in vitro: Hematopoietic progenitor cells (2×10^5 cell/ml) were isolated from normal bone marrow and cord blood and seeded in methylcellulose. […] The hCG preparations were administered at 200 IU/ml and the β- and α-subunits and peptides were administered at 100 μg/ml. The native commercial preparation of hCG (APL™, Wyeth Ayerst) was pre-tested for anti-HIV and anti-KS activities. Aggregates containing more than 50 cells after 10 days of culture were counted as colonies.

Row | Compound | KS in vitro (KS Y-1 and KS-SLK cells) | HIV in vitro Inhibition (HIV-1) | Pro-hematopoiesis in vitro Enhancement [1] | inhibition of HIV-1 infection/replication in vitro (in words) (HIV-1)
1 | 14. 1-20: β-hCG amino acids 1-20 (SKEPLRPRCRPINATLAVEK; UniProt P0DN86 21-40, looked up, fragment) | − (“−” represents less than 10% effect) | − (“−” represents less than 10% effect) |  | 
2 | 16. 31-50: β-hCG amino acids 31-50 (TTICAGYCPTMTRVLQGVLP; UniProt P0DN86 51-70, looked up, fragment) | − (“−” represents less than 10% effect) | − (“−” represents less than 10% effect) | − (“−” represents less than 10% effect) | 
3 | 17. 46-65: β-hCG amino acids 46-65 (SEQ ID NO:34) (QGVLPALPQVVCNYRDVRFE) | + (“+” represents greater than 15% effect) | + (“+” represents greater than 15% effect) |  | inhibited HIV-1 replication
4 | 18. 91-112: β-hCG amino acids 91-112 (ALCRRSTTDCGGPKDHPLTCDD; UniProt P0DN86 111-132, looked up, fragment) | − (“−” represents less than 10% effect) |  | − (“−” represents less than 10% effect) | 
5 | 19. 93-100: β-hCG amino acids 93-100 (CRRSTTDC; UniProt P0DN86 113-120, looked up, fragment) | − (“−” represents less than 10% effect) | − (“−” represents less than 10% effect) |  | 
6 | 20. 110-145: β-hCG amino acids 110-145 (CDDPRFQDSSSSKAPPPSLPSPSRLPGPSDTPILPQ; UniProt P0DN86 130-165, looked up, fragment) | − (“−” represents less than 10% effect) |  | − (“−” represents less than 10% effect) | 
7 | 21. 74-95: β-hCG amino acids 74-95 (RGVNPVVSYAVALSCQCALCRR; UniProt P0DN86 94-115, looked up, fragment) | − (“−” represents less than 10% effect) | − (“−” represents less than 10% effect) | − (“−” represents less than 10% effect) | 
8 | 22. 7-40: β-hCG amino acids 7-40 (SEQ ID NO:33) (PRCRPINATLAVEKEGCPVCITVNTTICAGYCPT) | + (“+” represents greater than 15% effect) | + (“+” represents greater than 15% effect) | − (“−” represents less than 10% effect) | inhibited HIV-1 replication
9 | 23. 57-93: β-hCG amino acids 57-93 (CNYRDVRFESIRLPGCPRGVNPVVSYAVALSCQCALC; UniProt P0DN86 77-113, looked up, fragment) | − (“−” represents less than 10% effect) | − (“−” represents less than 10% effect) | − (“−” represents less than 10% effect) | 
10 | 24. 34-39: β-hCG amino acids 34-39 (CAGYCP; UniProt P0DN86 54-59, looked up, fragment) | − (“−” represents less than 10% effect) | − (“−” represents less than 10% effect) |  | 
11 | 25. 123-145: β-hCG amino acids 123-145 | − (“−” represents less than 10% effect) | − (“−” represents less than 10% effect) |  | 
12 | 26. 134-144: β-hCG amino acids 134-144 | − (“−” represents less than 10% effect) | − (“−” represents less than 10% effect) | − (“−” represents less than 10% effect) | 
13 | 27. 100-110: β-hCG amino acids 100-110 (CGGPKDHPLTC; UniProt P0DN86 120-130, looked up, fragment) | − (“−” represents less than 10% effect) | − (“−” represents less than 10% effect) |  | 
14 | 28. 113-132: β-hCG amino acids 113-132 (PRFQDSSSSKAPPPSLPSPS; UniProt P0DN86 133-152, looked up, fragment) | − (“−” represents less than 10% effect) |  | − (“−” represents less than 10% effect) | 
15 | 29. 128-145: β-hCG amino acids 128-145 (LPSPSRLPGPSDTPILPQ; UniProt P0DN86 148-165, looked up, fragment) | − (“−” represents less than 10% effect) | − (“−” represents less than 10% effect) | −V (“−” represents less than 10% effect) | 
16 | 31. 51-59: β-hCG amino acids 51-59 (ALPQVVCNY; UniProt P0DN86 71-79, looked up, fragment) | − (“−” represents less than 10% effect) | − (“−” represents less than 10% effect) | − (“−” represents less than 10% effect) | 
17 | 34. 88-92: α-hCG amino acids 88-92 (YYHKS; UniProt P01215 112-116, looked up, fragment) | − (“−” represents less than 10% effect) | − (“−” represents less than 10% effect) |  | little or no effect
18 | 36. 16-30: α-hCG amino acids 16-30 (PFFSQPGAPILQCMG; UniProt P01215 40-54, looked up, fragment) | − (“−” represents less than 10% effect) | − (“−” represents less than 10% effect) | − (“−” represents less than 10% effect) | 
19 | 37. 26-45: α-hCG amino acids 26-45 (LQCMGCCFSRAYPTPLRSKK; UniProt P01215 50-69, looked up, fragment) | − (“−” represents less than 10% effect) | − (“−” represents less than 10% effect) | − (“−” represents less than 10% effect) | 
20 | 38. 41-61: α-hCG amino acids 41-61 (LRSKKTMLVQKNVTSESTCCV; UniProt P01215 65-85, looked up, fragment) | − (“−” represents less than 10% effect) | − (“−” represents less than 10% effect) |  | 
21 | 39. 57-76: α-hCG amino acids 57-76 (STCCVAKSYNRVTVMGGFKV; UniProt P01215 81-100, looked up, fragment) | − (“−” represents less than 10% effect) | − (“−” represents less than 10% effect) |  | 
22 | 40. 72-92: α-hCG amino acids 72-92 (GGFKVENHTACHCSTCYYHKS; UniProt P01215 96-116, looked up, fragment) | − (“−” represents less than 10% effect) | − (“−” represents less than 10% effect) | − (“−” represents less than 10% effect) | 
23 | Oc1ccccc1 [phenol, reference compound] |  |  |  | no effect on HIV-1 replication
